Laboratory results from patent US9588106B2, “Methods and compositions for measuring cell permeability” (The University of Chicago, priority 2012, dated 2017).

Test system: HPAEC monolayer
Test: XPerT permeability visualization on biotinylated gelatin coated coverslips (FITC-avidin, VE-cadherin staining)
Assay type: cell-based, human
Conditions: thrombin 0.2 or 0.3 U/ml 15 min; forskolin 2 μM 30 min; 10× objective; FIG. 4A
Protocol: Human pulmonary artery endothelial cells (HPAEC) were obtained from Lonza (Allendale, N.J.) and cultured in cell growth medium (EGM-2, Lonza) containing 10% fetal bovine serum (FBS). Cell cultures were maintained at 37° C. in a humidified 5% CO2 incubator and used for experiments at passages 5-8. In experiments with agonist stimulation, 10% FBS growth medium was replaced with 2% FBS growth medium for 2 hours prior to experiment. Measurements of transendothelial electrical resistance across a confluent endothelial cell monolayer were performed using the electrical cell-substrate impedance sensing system ECIS-1600 (Applied Biophysics, Troy, N.Y.). Transient transfections with cMyc-tagged RhoA-V14 or Rho kinase-CAT (6-553) were performed using PolyJet transfection reagent (SignaGen, Rockville, Md.) according to the manufacturer's protocol. In brief, HPAEC were seeded on 35 mm diameter cell culture dishes with biotinylated gelatin-treated coverslips at a density of 5×10^5 cells per dish. After 24 hours cells were transfected with 1 μg of plasmid DNA per dish (ratio: 1 μg of DNA per 3 μl of PolyJet). Permeability visualization experiments were performed 24 hours after transfection.
Permeability visualization experiments were performed on 18×18 mm square Rinzle plastic coverslips. The coverslips, placed in 35 mm culture dishes, were coated with biotinylated gelatin as described above. […]

thrombin
FITC fluorescence at cell-cell junction areas, low magnification images: dramatic increase in FITC fluorescence in the intercellular gaps
